# Results: patent publication US20020183384A1, “Methods of treating nuclear factor-kappa B mediated diseases and disorders” (priority 2001, published 2002)
# Where a name gives a salt, the structure may show the parent alone.
# Test system: NF-κB mediated transcription
# Experiment: NF-κB driven β-lactamase reporter assay in ECV-304 NF-κB.βlaZ cells (AURORA CCF2 fluorescence)
# Assay type: cell-based, human
# Details: 10 μM compound; ECV-304 NF-κB.βlaZ cells stimulated with 10 ng/mL TNF-α or 100 pg/mL IL-1β, 6 hours at 37° C.; inhibition of maximum blue/green ratio
# Text: Introduction: Described below is an in vitro, cell-based, high throughput screening assay that reliably identifies inhibitors of NF-κB mediated transcription.
# The assay takes advantage of AURORA (Aurora Bioscience Corporation, La Jolla, Calif.) fluorescence technology. Endothelial cell vein-304 (ECV-304) cells, an endothelial-like immortalized cell type, may be stably transfected with a plasmid vector containing the cDNA for the enzyme β-lactamase (under the control of a basal promoter, Stratagene pNFκB-luc vector) and 5 copies of an human immunodeficiency virus-1 (HIV-1) NF-κB binding site. ECV-304 cells are described by Takahashi K. et al. in Spontaneous Transformation and Immobilization of Human Endothelial Cells, In Vitro Cell. Dev. Biol. 1990;25:265-274. Activation of NF-κB in ECV-304 by cytokines such as TNF-α or interleuken-1 beta (IL-1β) results in the production of β-lactamase, which cleaves a green fluorescent substrate (excitation/emission wavelengths 395 nm1530 nm) to yield a blue fluorescent product (excitation/emission wavelengths 395 nm/460 nm). Visually, the uncleaved green fluorescent substrate is sequestered intracellularly and emits green fluorescence, while the cleaved product emits blue fluorescence. Fluorescence is quantitated spectrophotometrically, and the spectral intensity of blue fluorescence versus green fluorescence can be used to calculate the degree of activation of NF-κB.
# The assay was performed as outlined here and described in detail below. ECV-304 cells permanently transfected with the NF-κB driven β-lactamase gene (ECV-304 NF-κB.βlaZ) were plated in clear-bottom, black 96-well plates (1.25×10^4 cells/well) in media-199 (M-199) media containing 2% fetal bovine serum (FBS). […] The AURORA fluorescent disclosing reagent was then added. After one additional hour, the plates were read in a fluorometer at the blue 395 nm/460 nm (excitation/emission) and green 395 nm/530 nm wavelengths. Then the blue/green emission ratio was calculated. […] An IC50 for said sulfonylaminocarbonyl derivative was determined from a dose-response curve. This assay was designed to be optionally run in either high or low throughput screening modes.
# Five copies of the HIV-1 NF-κB binding site (5′-[…]-3′) along with a TATA box were inserted into the EcorRI/BamHI sites of plasmid pMCRBlaZ to create plasmid p5×KBBlaZ, which procedure is illustrated in Scheme 1 below. [formula]
# Cells were selected for antibiotic resistance with Zeocin for approximately 2 weeks. After the stable population had been expanded to a significant number of cells, it was stimulated with IL-1β and stained with AURORA CCF2 dye, a membrane permeant, intracellularly-trapped, fluorescent substrate. Cells that fluoresced blue (indicating a positive response of the NF-κB/β-lactamase reporter to stimulation by IL-1β) in the stimulated/stained population were then sorted by flow cytometry into a pool. The pool was expanded and stained with CCF2, and then the cells that fluoresced green from this unstimulated population (indicating a low background of the NF-κB/β-lactamase reporter construct) were cloned by flow cytometry after adding 1 cell per well in 96-well plates. Clones were allowed to expand. Each cloned cell line was then examined for fold stimulation after stimulation with IL-1β using a CCF2 reporter assay, and these stimulated cells were compared to unstimulated cells.
# Cells: ECV-304 NF-κB β-Lactamase clone 1E8
# Inhibitors: Prepared stock solutions of aminosulfonyl derivatives at 10 mM concentration in DMSO;
# c) Added 10 μL of B into appropriate well in assay plate (the final concentration of drug is 10 μM), and […]
row,Compound,Percent Inhibition at 10 μM [%]
1,"CC(C)c1cccc(C(C)C)c1NC(=O)NS(=O)(=O)N(CC1CCCO1)CC1CCCO1 (stereo not drawn) [Example 41, N-[2,6-bis(1-methylethyl)phenyl]-N′-[[bis[(tetrahydro-2-furanyl)methyl]amino]sulfonyl]-urea,]",<10

# Same assay, conditions: Homo sapiens, ECV-304, 6 h, 10 μM compound; ECV-304 NF-κB.βlaZ cells stimulated with 10 ng/mL TNF-α or 100 pg/mL IL-1β, 6 hours at 37° C.; inhibition of maximum blue/green ratio; read-out: Percent Inhibition at 10 μM
row,Compound,inhibition at 10 µM [%]
1,"CC(C)c1cccc(C(C)C)c1NS(=O)(=O)NC(=O)N(Cc1ccccc1)Cc1ccccc1 [Example 29, N′-[[[2,6-bis(1-methylethyl)phenyl]amino]sulfonyl]-N,N-bis(phenylmethyl)-urea]",38.5
2,"CC(C)c1cccc(C(C)C)c1NC(=O)NS(=O)(=O)N1CCC(c2ccccc2)CC1 [Example 35, N-[2,6-bis(1-methylethyl)phenyl]-N′-[(4-phenyl-1-piperidinyl)-sulfonyl]-urea]",< 10
3,"CCCCCCN(CCCCCC)S(=O)(=O)NC(=O)Nc1c(C(C)C)cccc1C(C)C [Example 36, N-[2,6-bis(1-methylethyl)phenyl]-N′-[(dihexylamino)sulfonyl]-urea]",51.2
4,"CC(C)c1cccc(C(C)C)c1NC(=O)NS(=O)(=O)N(CCCN(C)C)CCCN(C)C [Example 37, N-[[bis[3-(dimethylamino)propyl]amino]sulfonyl]-N′-[2,6-bis(1-methylethyl)phenyl]-urea]",< 10
5,"CCCCCCNS(=O)(=O)NC(=O)Nc1c(C(C)C)cccc1C(C)C [Example 39, N-[2,6-bis(1-methylethyl)phenyl]-N′-[(hexylamino)sulfonyl]-urea]",< 10
6,"CCN(CC)S(=O)(=O)NC(=O)Nc1c(C(C)C)cccc1C(C)C [Example 44, Urea, N-[2,6-bis(1-methylethyl)phenyl]-N′-[(diethylamino)sulfonyl]-]",< 10
7,"CCCCCCCCN(C)S(=O)(=O)NC(=O)Nc1c(C(C)C)cccc1C(C)C [Example 45, Urea, N-[2,6-bis(1-methylethyl)phenyl]-N′-[(methyloctylamino)sulfonyl]-]",53.5

# Same assay, conditions: Homo sapiens; 10 μM compound; ECV-304 NF-κB.βlaZ cells stimulated with 10 ng/mL TNF-α or 100 pg/mL IL-1β, 6 hours at 37° C.; inhibition of maximum blue/green ratio; read-out: Percent Inhibition at 10 μM
row,Compound,inhibition at 10 µM [%]
1,"CC(C)c1cccc(C(C)C)c1OC(=O)NS(=O)(=O)N(c1ccccc1)c1ccccc1 [Example 26, Carbamic acid, [(diphenylamino)sulfonyl]-, 2,6-bis(1-methylethyl)phenyl ester]",32.8
2,"CCCCN(CCCC)S(=O)(=O)NC(=O)Oc1c(C(C)C)cccc1C(C)C [Example 27, Carbamic acid, [(dibutylamino)sulfonyl]-, 2,6-bis(1-methylethyl)phenyl ester]",26.1
3,"CC(C)c1cccc(C(C)C)c1OC(=O)NS(=O)(=O)Oc1c(C(C)C)cccc1C(C)C [Example 28, Carbamic acid, [[2,6-bis(1-methylethyl)phenoxy]sulfonyl]-, 2,6-bis(1-methylethyl)phenyl ester]",30.2
4,"CCCCN(CCCC)S(=O)(=O)NC(=O)Oc1c(C(C)(C)C)cc(C)cc1C(C)(C)C [Example 30, Carbamic acid, [(dibutylamino)sulfonyl]-, 2,6-bis(1,1-dimethylethyl)-4-methylphenyl ester]",52
5,"CCCCCN(CCCCC)S(=O)(=O)NC(=O)Oc1c(C(C)(C)C)cc(C)cc1C(C)(C)C [Example 31, Carbamic acid, [(dipentylamino)sulfonyl]-, 2,6-bis(1,1-dimethylethyl)-4-methylphenyl ester]",74
6,"Cc1cc(C(C)(C)C)c(OC(=O)NS(=O)(=O)N(C(C)C)C(C)C)c(C(C)(C)C)c1 [Example 32, Carbamic acid, [[bis(1-methylethyl)amino]sulfonyl]-, 2,6-bis(1,1-dimethylethyl)-4-methylphenyl ester]",20.3
7,"CCCCCCN(CCCCCC)S(=O)(=O)NC(=O)Oc1c(C(C)(C)C)cc(C)cc1C(C)(C)C [Example 33, Carbamic acid, [(dihexylamino)sulfonyl]-, 2,6-bis(1,1-dimethylethyl)-4-methylphenyl ester]",58.6
8,"CCCCCCNS(=O)(=O)NC(=O)Oc1c(C(C)(C)C)cc(C)cc1C(C)(C)C [Example 34, Carbamic acid, [(hexylamino)sulfonyl]-, 2,6-bis(1,1-dimethylethyl)-4-methylphenyl ester]",24.3
9,"Cc1cc(C(C)(C)C)c(OC(=O)NS(=O)(=O)N(C)CCc2ccccc2)c(C(C)(C)C)c1 [Example 38, Carbamic acid, [[methyl(2-phenylethyl)amino]sulfonyl]-, 2,6-bis(1,1-dimethylethyl)-4-methylphenyl ester]",31.5
10,"Cc1cc(C(C)(C)C)c(OC(=O)NS(=O)(=O)N(CCCN(C)C)CCCN(C)C)c(C(C)(C)C)c1 [Example 40, Carbamic acid, [[bis[3-(dimethylamino)propyl]amino]sulfonyl]-, 2,6-bis(1,1-dimethylethyl)-4-methylphenyl ester]",< 10
11,"Cc1cc(C(C)(C)C)c(OC(=O)NS(=O)(=O)N(C)CCc2ccccn2)c(C(C)(C)C)c1 [Example 42, Carbamic acid, [[methyl[2-(2-pyridinyl)ethyl]amino]sulfonyl]-, 2,6-bis(1,1-dimethylethyl)-4-methylphenyl ester, monohydrochloride]",< 10
12,"CCCCCCCCN(C)S(=O)(=O)NC(=O)Oc1c(C(C)(C)C)cc(C)cc1C(C)(C)C [Example 43, Carbamic acid, [(methyloctylamino)sulfonyl]-, 2,6-bis(1,1-dimethylethyl)-4-methylphenyl ester]",70.2
13,"CCCCCCCCN(CCCCCCCC)S(=O)(=O)NC(=O)Oc1c(C(C)(C)C)cc(C)cc1C(C)(C)C [Example 46, Carbamic acid, [(dioctylamino)sulfonyl]-, 2,6-bis(1,1-dimethylethyl)-4-methylphenyl ester]",34.8
14,"COc1cc(C(C)(C)C)c(OC(=O)NS(=O)(=O)NCC(c2ccccc2)c2ccccc2)c(C(C)(C)C)c1 [Example 47, Carbamic acid, [[(2,2-diphenylethyl)amino]sulfonyl]-, 2,6-bis(1,1-dimethylethyl)-4-methoxyphenyl ester]",41.9
15,"Cc1cc(C(C)(C)C)c(OC(=O)NS(=O)(=O)Oc2ccccc2)c(C(C)(C)C)c1 [Example 48, Carbamic acid, (phenoxysulfonyl)-, 2,6-bis(1,1-dimethylethyl)-4-methylphenyl ester]",13.8
16,"CCCCCCOS(=O)(=O)NC(=O)Oc1c(C(C)(C)C)cc(C)cc1C(C)(C)C [Example 49, Carbamic acid, [(hexyloxy)sulfonyl]-, 2,6-bis(1,1-dimethylethyl)-4-methylphenyl ester]",22.9
17,"COc1cc(C(C)(C)C)c(OC(=O)NS(=O)(=O)Nc2c(C(C)C)cccc2C(C)C)c(C(C)(C)C)c1 [Example 50, Carbamic acid, [[[2,6-bis(1-methylethyl)phenyl]amino]sulfonyl]-, 2,6-bis(1,1-dimethylethyl)-4-methoxyphenyl ester]",39.1
18,"CCCCCCCCCCCCOS(=O)(=O)NC(=O)Oc1c(C(C)(C)C)cc(C)cc1C(C)(C)C [Example 51, Carbamic acid, [(dodecyloxy)sulfonyl]-, 2,6-bis(1,1-dimethylethyl)-4-methylphenyl ester]",47.2
19,"CCCCCCCCCCN(CCCCCCCCCC)S(=O)(=O)NC(=O)Oc1c(C(C)(C)C)cc(C)cc1C(C)(C)C [Example 52, Carbamic acid, [(didecylamino)sulfonyl]-, 2,6-bis(1,1-dimethylethyl)-4-methylphenyl ester]",< 10
